From patent US20250066346A1, “SOLID FORMS OF A BENZTHIAZOLE-PIPERAZINYL-OXAZOLE COMPOUND AND METHODS OF USE THEREOF” (Hepagene Therapeutics (HK) Limited, priority 2022, published 2025)
Counter-ions that a name gives are not always drawn.

Key:
Format in all cases: physicochemical
[1] = Kinetic solubility in water and bio-relevant media (SGF, FaSSIF, FeSSIF) at 37° C.; parameters: key to FC: form change: Yes: form changed; No: form not changed; conditions: for pH: filtered supernatant
Description: Agilent 1260 HPLC was utilized and detailed chromatographic conditions are provided in Tables 3 and 4 for purity and solubility test, respectively.
About 20 mg of free base (form A) HCl salt (form B), and HBr salt (form D) were added to a 5-mL glass vials followed by the addition of 4 mL of the corresponding medium/solvent into each glass vial to form a suspension. The vials were capped and rolled at 37° C. (25 rpm). Samples were removed (1 mL) at 1 h, 4 h, and 24 h and centrifuged (14000 rpm, 2 min, room temperature). The supernatant was filtered through 0.22 μm syringe filter (first few drops of filtrate were discarded) for HPLC solubility and pH tests (Table 15). The residual solids were analyzed by XRPD.

[2] = Solid state stability (XRPD for physical stability, HPLC purity for chemical stability); conditions: for Purity/initial purity: HPLC; for Form change: XRPD
Source text: All the samples were characterized by XRPD for physical stability and HPLC purity for chemical stability evaluation (Table 16).

[3] = Hygroscopicity by dynamic vapor sorption (DVS) at 25° C.
Description: DVS was measured via a SMS (Surface Measurement Systems) DVS Intrinsic. The relative humidity at 25° C. was calibrated against deliquescence point of LiCl, Mg(NO3)2 and KCl.

[4] = Form conversion by variable-temperature XRPD (VT-XRPD)
Description: […] 22.
Based on data above, it would convert to dehydrate state (HCl salt Form C) at low humidity and back to hydrate at high humidity.
HBr salt Form E was observed after N2 purging HBr salt Form D for 20 min at 30° C. via variable-temperature XRPD (VT-XRPD) shown in FIG. 23.
Based on data above, it would convert to dehydrate state (HBr salt Form E) at low humidity and back to hydrate at high humidity.

## COc1cc(C(=O)O)cc2sc(N3CCN(Cc4c(-c5c(Cl)cccc5Cl)noc4C4CC4)C[C@H]3C)nc12 [HBr salt Form D, (R)-2-(4-((5-cyclopropyl-3-(2,6-dichlorophenyl)isoxazol-4-yl)methyl)-2-methylpiperazin-1-yl)-4-methoxybenzo[d]thiazole-6-carboxylic acid]
[1]
  solubility in FaSSIF and FeSSIF (in words): significant solubility improvement
[1]; FaSSIF, 1 hr
  FC: form change: No
  S: solubility: 320 µg/mL
  pH: 6.3
[1]; FaSSIF, 4 hrs
  FC: form change: No
  S: solubility: 460 µg/mL
  pH: 6.3
[1]; FaSSIF, 24 hrs
  FC: form change: No
  S: solubility: 640 µg/mL
  pH: 6.3
[1]; FeSSIF, 1 hr
  FC: form change: No
  S: solubility: 660 µg/mL
  pH: 5.1
[1]; FeSSIF, 4 hrs
  FC: form change: No
  S: solubility: 710 µg/mL
  pH: 5.1
[1]; FeSSIF, 24 hrs
  FC: form change: No
  S: solubility: 780 µg/mL
  pH: 5.0
[1]; H2O, 1 hr
  FC: form change: No
  S: solubility: 0.6 µg/mL
  pH: 3.0
[1]; H2O, 4 hrs
  FC: form change: No
  S: solubility: 0.7 µg/mL
  pH: 3.0
[1]; H2O, 24 hrs
  FC: form change: No
  S: solubility: 0.6 µg/mL
  pH: 3.0
[1]; SGF, 1 hr
  FC: form change: No
  S: solubility: 31 µg/mL
  pH: 1.9
[1]; SGF, 4 hrs
  FC: form change: No
  S: solubility: 30 µg/mL
  pH: 1.9
[1]; SGF, 24 hrs
  FC: form change: Yes
  S: solubility: 43 µg/mL
  pH: 1.7
[1]; SGF, FaSSIF, FeSSIF
  solubility in SGF, FaSSIF, and FeSSIF compared with free base (form A) and HCl salt (form B): improved solubility
[1]; water
  solubility in water, ranking among form A, form B, form D: lowest solubility
[2]; 25° C./60% RH/1 week
  Purity/initial purity: 99.9%
  Form change: No
[2]; 40° C./75% RH/1 week
  Purity/initial purity: 99.9%
  Form change: No
[2]; 80° C. for 1 day
  HPLC purity after storage (in words): decreased
[2]; 80° C./1 day
  Purity/initial purity: 99.5%
  Form change: No
[2]; all test conditions
  form change (in words): no form change was observed
[3]; in the range of 0% RH to 20% RH, platform between 20% RH and 80% RH
  water uptake: 2.6%

## COc1cc(C(=O)O)cc2sc(N3CCN(Cc4c(-c5c(Cl)cccc5Cl)noc4C4CC4)C[C@H]3C)nc12 [Form C, (R)-2-(4-((5-cyclopropyl-3-(2,6-dichlorophenyl)isoxazol-4-yl)methyl)-2-methylpiperazin-1-yl)-4-methoxybenzo[d]thiazole-6-carboxylic acid]
[4]; ambient conditions for about 10 min
  form after exposing to ambient conditions: HCl salt Form B was re-obtained
[4]; with N2 protection, VT-XRPD
  form change after heating to 120° C. and cooling to 30° C.: no form change occurred

## COc1cc(C(=O)O)cc2sc(N3CCN(Cc4c(-c5c(Cl)cccc5Cl)noc4C4CC4)C[C@H]3C)nc12 [HCl salt Form B, (R)-2-(4-((5-cyclopropyl-3-(2,6-dichlorophenyl)isoxazol-4-yl)methyl)-2-methylpiperazin-1-yl)-4-methoxybenzo[d]thiazole-6-carboxylic acid]
[1]
  solubility in FaSSIF and FeSSIF (in words): significant solubility improvement
[1]; FaSSIF, 1 hr
  FC: form change: No
  S: solubility: 290 µg/mL
  pH: 6.5
[1]; FaSSIF, 4 hrs
  FC: form change: No
  S: solubility: 420 µg/mL
  pH: 6.5
[1]; FaSSIF, 24 hrs
  FC: form change: No
  S: solubility: 570 µg/mL
  pH: 6.4
[1]; FeSSIF, 1 hr
  FC: form change: No
  S: solubility: 480 µg/mL
  pH: 5.1
[1]; FeSSIF, 4 hrs
  FC: form change: No
  S: solubility: 480 µg/mL
  pH: 5.0
[1]; FeSSIF, 24 hrs
  FC: form change: No
  S: solubility: 500 µg/mL
  pH: 5.0
[1]; H2O, 1 hr
  FC: form change: No
  S: solubility: 4.9 µg/mL
  pH: 6.1
[1]; H2O, 4 hrs
  FC: form change: No
  S: solubility: 5.6 µg/mL
  pH: 5.9
[1]; H2O, 24 hrs
  FC: form change: No
  S: solubility: 6.1 µg/mL
  pH: 6.4
[1]; SGF, 1 hr
  FC: form change: No
  S: solubility: 61 µg/mL
  pH: 1.8
[1]; SGF, 4 hrs
  FC: form change: No
  S: solubility: 48 µg/mL
  pH: 1.9
[1]; SGF, 24 hrs
  FC: form change: Yes
  S: solubility: 39 µg/mL
  pH: 1.8
[2]; 25° C./60% RH/1 week
  Purity/initial purity: 100.0%
  Form change: No
[2]; 40° C./75% RH/1 week
  Purity/initial purity: 100.0%
  Form change: No
[2]; 80° C./1 day, 25° C./60% RH/1 week, 40° C./75% RH/1 week
  solid state stability (overall, in words): good solid state stability
[2]; 80° C./1 day
  Purity/initial purity: 100.0%
  Form change: No
[3]; in the range of 0% RH to 30% RH, platform between 30% RH and 95% RH
  water uptake: 2.5%
